Source: article PMC4138103 (PLoS ONE, 2014)
Like-named read-outs stand apart in the source and are kept apart here.

System: Sprague-Dawley rats
Assay: Organ weights
Assay type: in vivo, Rattus norvegicus
Parameters: key to Dose response, Ovaries weight: D: significant dose response (for results see Table 2 in the text); T: significant trend
Conditions: for Emax: Rattus norvegicus; for Organ weight, Adrenals / Organ weight, Brain / Organ weight, Heart / Organ weight, Kidneys / Organ weight, Ovaries / Organ weight, Pituitary / Organ weight, Spleen / Organ weight, Thymus / Organ weight, Thyroid gland / Organ weight, Uterus: group mean
Procedure: At the end of the treatment period (males on study day 28–31, females on study day 28–32) the rats were anesthetized with CO2/O2 (70/30%). Blood samples were drawn from the left ventricle using Venoject needles (Terumo) and Vacuette EDTA and serum blood collection tubes, and the rats were killed by exsanguination. EDTA blood was used for hematology investigations (see below). Serum was separated, divided into aliquots, frozen in liquid nitrogen and stored at −70°C for further analysis (see below). A complete necropsy (macroscopic observations, tissue sampling for molecular biology, biochemistry, histopathology, analytical chemistry and organ weights) was performed on each rat. The weights of the following organs were recorded: adrenals, brain, epididymides, heart, kidneys, liver, lungs, ovaries, pituitary, prostate (ventral), seminal vesicles, spleen, testes, thymus, thyroids (with parathyroids) and uterus. For molecular biology and biochemical analyses samples from brain, liver, kidney, bones, and several other tissues were snap frozen in liquid nitrogen and stored at −80°C for further analysis. […] Tissue samples for histopathology were preserved in 10% neutral buffered formalin except testis and epididymis, which were fixed in Bouin's solution for 24 h after which they were transferred into 70% ethanol.
Data were also analyzed using the BMD method, which is based on dose-response modeling of the full data set using a nested family of exponential and Hill models. The analyses were done on data of males and females combined, using sex as a covariate. […] In that case, different Critical Effect Doses (CEDs) and CEDs at the lowest bound of the confidence interval (CED-L) were generated for each sex. If no difference between sexes is detected, a CED and CED-Ls for the combined data is generated. However, this was also done if the curve fits are close, and separate analyses for males and females were then performed manually. CEDs and CED-Ls were calculated at the predefined Critical Effect Size (CES) of 5% (EFSA standard) or 10%.

[1] = F, CES 5%, model E2, adipose tissue concentration based
[2] = F, CES 5%, model E4, adipose tissue concentration based
[3] = F, CES 10%, model E2, adipose tissue concentration based
[4] = F, CES 10%, model E4, adipose tissue concentration based
[5] = M, CES 5%, model E2, adipose tissue concentration based
[6] = M, CES 5%, model E4, adipose tissue concentration based
[7] = M, CES 10%, model E2, adipose tissue concentration based
[8] = M, CES 10%, model E4, adipose tissue concentration based
[9] = females, total dose 0-1700 mg/kg bw
[10] = females, CES 5%, total dose based
[11] = females, CES 10%, total dose based
[12] = females, adipose tissue concentration based
[13] = females, total dose 10 mg/kg bw
[14] = females, total dose 30 mg/kg bw
[15] = females, total dose 100 mg/kg bw
[16] = females, total dose 300 mg/kg bw
[17] = females, total dose 1000 mg/kg bw

Clc1cc(Cl)c(-c2cc(Cl)c(Cl)c(Cl)c2Cl)cc1Cl [PCB 180, 2,2′,3′,4,4′,5,5′-heptachlorobiphenyl]
CED, Thyroid gland weight [1]: 3010 µg/g lipid | CED-L, Thyroid gland weight [1]: 1698 µg/g lipid | CED, Liver weight [2]: 512 µg/g lipid | CED, Ovaries weight [2]: 201 µg/g lipid | CED-L, Liver weight [2]: 263 µg/g lipid | CED-L, Ovaries weight [2]: 31.7 µg/g lipid | CED, Thyroid gland weight [3]: 6190 µg/g lipid | CED-L, Thyroid gland weight [3]: 3488 µg/g lipid | CED, Liver weight [4]: 1090 µg/g lipid | CED, Ovaries weight [4]: 510 µg/g lipid | CED-L, Liver weight [4]: 565 µg/g lipid | CED-L, Ovaries weight [4]: 79.6 µg/g lipid | CED, Thyroid gland weight [5]: 1030 µg/g lipid | CED-L, Thyroid gland weight [5]: 720 µg/g lipid | CED, Liver weight [6]: 42.3 µg/g lipid | CED-L, Liver weight [6]: 19.8 µg/g lipid | CED, Thyroid gland weight [7]: 2010 µg/g lipid | CED-L, Thyroid gland weight [7]: 1407 µg/g lipid | CED, Liver weight [8]: 88.4 µg/g lipid | CED-L, Liver weight [8]: 41.3 µg/g lipid | Emax (F, model E2, controls vs high dose according to the fitted model, read-out: Maximum response, Relative thyroid gland weight): -16.5% | Emax (F, model E2, controls vs high dose according to the fitted model, read-out: Maximum response, Thyroid gland weight): -17.6% | Emax (F, model E4, controls vs high dose according to the fitted model, read-out: Maximum response, Liver weight): 43.1% | Emax (F, model E4, controls vs high dose according to the fitted model, read-out: Maximum response, Ovaries weight): 17% | Emax (F, model E4, controls vs high dose according to the fitted model, read-out: Maximum response, Relative liver weight): 44.8% | Emax (females, controls vs high dose, fitted model, read-out: Liver weight, Maximum response): 45% | Emax (females, controls vs high dose, fitted model, read-out: Ovaries weight, Maximum response): 17% | Emax (females, controls vs high dose, fitted model, read-out: Relative liver weight, Maximum response): 46.2% | Emax (females, controls vs high dose, fitted model, read-out: Relative thyroid gland weight, Maximum response): -17% | Emax (females, controls vs high dose, fitted model, read-out: Thyroid gland weight, Maximum response): -17.9% | Emax (males, controls vs high dose, fitted model, read-out: Liver weight, Maximum response): 66% | Emax (males, controls vs high dose, fitted model, read-out: Relative liver weight, Maximum response): 67% | Emax (males, controls vs high dose, fitted model, read-out: Relative thymus weight, Maximum response): 17.1% | Emax (males, controls vs high dose, fitted model, read-out: Relative thyroid gland weight, Maximum response): 45.2% | Emax (F, model E5, controls vs high dose according to the fitted model, read-out: Maximum response, Relative ovaries weight): 16% | Emax (model E2, controls vs high dose according to the fitted model, read-out: Maximum response, Relative thymus weight): 17.6% | Emax (model E2, controls vs high dose according to the fitted model, read-out: Maximum response, Relative thyroid gland weight): 45.7% | Emax (model E2, controls vs high dose according to the fitted model, read-out: Maximum response, Thyroid gland weight): 41.9% | Emax (model E4, controls vs high dose according to the fitted model, read-out: Maximum response, Liver weight): 65% | Emax (model E4, controls vs high dose according to the fitted model, read-out: Maximum response, Relative liver weight): 66% | Thyroid weight, max. decrease (females): 18% | Dose response, Ovaries weight [9]: D | Dose response, Thyroid gland weight [9]: D, T | Liver weight, CED [10]: 225 mg/kg bw | Liver weight, CED-L [10]: 188 mg/kg bw | Ovaries weight, CED [10]: 46.8 mg/kg bw | Ovaries weight, CED-L [10]: 6.15 mg/kg bw | Thyroid gland weight, CED [10]: 443 mg/kg bw | Thyroid gland weight, CED-L [10]: 257 mg/kg bw | Liver weight, CED [11]: 439 mg/kg bw | Liver weight, CED-L [11]: 368 mg/kg bw | Ovaries weight, CED [11]: 120 mg/kg bw | Ovaries weight, CED-L [11]: 15.4 mg/kg bw | Thyroid gland weight, CED [11]: 910 mg/kg bw | Thyroid gland weight, CED-L [11]: 528 mg/kg bw | Liver weight, CED [12]: 512 µg/g lipid | Ovary weight, CED [12]: 201 µg/g lipid | Thyroid weight, CED [12]: 3010 µg/g lipid | Liver weight, Maximum response (females, controls vs high dose, fitted model): 44.6% | Organ weight, Adrenals (females, total dose 3 mg/kg bw): 0.0648 g | Organ weight, Brain (females, total dose 3 mg/kg bw): 1.60 g | Organ weight, Heart (females, total dose 3 mg/kg bw): 0.958 g | Organ weight, Kidneys (females, total dose 3 mg/kg bw): 1.43 g | Organ weight, Ovaries (females, total dose 3 mg/kg bw): 0.093 g | Organ weight, Pituitary (females, total dose 3 mg/kg bw): 0.0112 g | Organ weight, Spleen (females, total dose 3 mg/kg bw): 0.728 g | Organ weight, Thymus (females, total dose 3 mg/kg bw): 0.528 g | Organ weight, Thyroid gland (females, total dose 3 mg/kg bw): 0.0202 g | Organ weight, Uterus (females, total dose 3 mg/kg bw): 0.372 g | Organ weight, Adrenals [13]: 0.0640 g | Organ weight, Brain [13]: 1.59 g | Organ weight, Heart [13]: 0.884 g | Organ weight, Kidneys [13]: 1.46 g | Organ weight, Ovaries [13]: 0.086 g | Organ weight, Pituitary [13]: 0.0124 g | Organ weight, Spleen [13]: 0.722 g | Organ weight, Thymus [13]: 0.470 g | Organ weight, Thyroid gland [13]: 0.0188 g | Organ weight, Uterus [13]: 0.492 g | Organ weight, Adrenals [14]: 0.0618 g | Organ weight, Brain [14]: 1.61 g | Organ weight, Heart [14]: 0.870 g | Organ weight, Kidneys [14]: 1.45 g | Organ weight, Ovaries [14]: 0.096 g | Organ weight, Pituitary [14]: 0.0124 g | Organ weight, Spleen [14]: 0.696 g | Organ weight, Thymus [14]: 0.494 g | Organ weight, Thyroid gland [14]: 0.0169 g | Organ weight, Uterus [14]: 0.353 g | Organ weight, Adrenals [15]: 0.0612 g | Organ weight, Brain [15]: 1.62 g | Organ weight, Heart [15]: 0.896 g | Organ weight, Kidneys [15]: 1.46 g | Organ weight, Ovaries [15]: 0.091 g | Organ weight, Pituitary [15]: 0.0122 g | Organ weight, Spleen [15]: 0.676 g | Organ weight, Thymus [15]: 0.480 g | Organ weight, Thyroid gland [15]: 0.0213 g | Organ weight, Uterus [15]: 0.368 g | Organ weight, Adrenals [16]: 0.0686 g | Organ weight, Brain [16]: 1.60 g | Organ weight, Heart [16]: 0.908 g | Organ weight, Kidneys [16]: 1.45 g | Organ weight, Ovaries [16]: 0.110 g | Organ weight, Pituitary [16]: 0.0121 g | Organ weight, Spleen [16]: 0.650 g | Organ weight, Thymus [16]: 0.498 g | Organ weight, Thyroid gland [16]: 0.0176 g | Organ weight, Uterus [16]: 0.352 g | Organ weight, Adrenals [17]: 0.0641 g | Organ weight, Brain [17]: 1.59 g | Organ weight, Heart [17]: 0.896 g | Organ weight, Kidneys [17]: 1.49 g | Organ weight, Ovaries [17]: 0.103 g | Organ weight, Pituitary [17]: 0.0112 g
